Results published in paper PMC10961089, “Epidermal growth factor receptor inhibition potentiates chemotherapeutics‐mediated sensitization of metastatic breast cancer stem cells” (Cancer Reports, 2024).

Key:
[1] = system: CD24^+‐breast cancer cells; assay: Mammosphere forming efficiency, sorted cells; assay type: cell-based, human; conditions: doxorubicin 0.01 μM + 1e
Experimental: (§1) TNBC cell lines—MDA‐MB‐231, MDA‐MB‐468, or the sorted CD24^+‐breast cancer cells, and CD24^−/CD44^+‐breast CSC populations from MDA‐MB‐231 [6] were seeded at a 1 × 10^4 cells/well density in mammosphere‐specific medium—Medium‐171 (Gibco, USA), supplemented with mammary epithelial growth supplement (MEGS) and B‐27 (Life technologies, Auckland, New Zealand) as described previously.[6], [26] TNBC cells or the sorted breast cancer cells and CSCs were plated onto poly‐hydroxyethyl methacrylate (Sigma‐Aldrich, USA) coated 24‐well plates and subjected to treatment with DMSO (Vehicle), Doxorubicin (0.01 and 0.1 μM) alone or with the potential EGFR inhibitors (compounds—1c, 1e, 1g, 1h, 1j, and 1k (5 μM) based on their low IC50 values) or a commercial EGFR inhibitor, PD153035 (10 μM). The suspension cultures were incubated under 5% CO2, at 37°C in a humidified atmosphere for 7 days. At the end of the treatment period, the images of mammospheres were taken at 10× magnification using a microscope (Olympus IX71, Tokyo, Japan). The size of spheres was measured using ImageJ software (NIH, Bethesda, MD, USA).

[2] = system: CD24^−/CD44^+‐breast CSCs; assay: Mammosphere forming efficiency, sorted cells; assay type: cell-based, human; conditions: doxorubicin 0.01 μM + 1e
Experimental: as §1

[3] = system: MDA‐MB‐231 cells; assay: Apoptosis assay, Hoechst 33342 staining; assay type: cell-based, human; conditions: MDA-MB-231, combinatorial treatment with doxorubicin, 48 h, vs other treatment groups
Experimental: MDA‐MB‐231 cells were seeded at a density of 3 × 10^4 cells/well and cultured on a coverslip for 24 h at 37°C followed by 12 h serum starvation in 6‐well plates. The cells were treated with Doxorubicin (0.01 and 0.1 μM) in the absence or presence of compounds—1c, 1e, 1g, 1h, 1j, and 1k and incubated for 48 h. Post‐treatment, the cells were fixed using 4% Paraformaldehyde and stained with Hoechst 33342 dye (2 mg/mL; Invitrogen, USA) for 30 min. Apoptotic cells were identified by visualizing the fragmentation and condensation of nuclei using a confocal microscope (Olympus, USA).[30]

[4] = system: CD24^−/CD44^+‐breast CSCs xenotransplanted tumors; assay: Preclinical orthotopic xenograft murine tumor model (tumor size, weight, H&E histology); assay type: in vivo, C57BL/6 mice
Experimental: Animal studies have been carried out with the prior approval of the Institutional Animal Ethics Committee (IICT/IAEC/025/2023). C57BL/6 female mice of age 6–8 weeks (N = 35) were initially immunosuppressed with cyclophosphamide (50 mg/kg of body weight, i.p) on alternate days for 2 weeks. For generating a preclinical orthotopic xenograft tumor model, 2 × 10^6 GFP expressing sorted stable CD24^+‐breast cancer cells and CD24^−/CD44^+‐breast CSCs were orthotopically xeno‐transplanted subcutaneously at the fourth mammary fat pad of immune‐suppressed mice (n = 5/group). Subsequently, intratumoral administration of Doxorubicin at a low dose (2.5 mg/kg of body weight), high dose (10 mg/kg of body weight), and/or combinatorial treatment of the potent EGFR inhibitor, compound 1e (50 mg/kg of body weight) or the commercial EGFR inhibitor, PD153035 (50 mg/kg of body weight) with a low dose of doxorubicin was performed to the palpable tumors of breast CSCs at day‐3 post‐transplantation.
Euthanization of mice was performed on day 14 post‐transplantation and tumor tissues were collected for histological and immunohistochemical analysis. Histological differences in tumor tissues were evaluated using hematoxylin and eosin staining (H&E).[28], [30]

[5] = system: Bax and Cytochrome‐C in MDA‐MB‐231 cells; assay: Gene expression of apoptotic genes, semi-quantitative RT-PCR; assay type: cell-based, human; conditions: MDA-MB-231, doxorubicin + compound 5 μM, 24 h
Experimental: Briefly, the cells were incubated at 37°C with serum starvation followed by culturing as described above. […] Briefly, the template RNA (1 μg) was utilized for cDNA synthesis using a First‐strand cDNA synthesis kit (Thermo Scientific, USA) according to the manufacturer's protocol. Thermal cycler (Mastercycler® nexus, Eppendorf) was used for the amplification of the expression of apoptotic genes—Bax, Bcl2, Cytochrome‐C, and target gene EGFR with the help of Dream Taq DNA Polymerase PCR Master Mix (Thermo Scientific, USA) along with human gene‐specific forward and reverse primer sequences of the apoptotic genes and EGFR (Table ST1). The expression of the target genes was normalized to the Eukaryotic 18S rRNA.

[6] = system: CD24^+‐breast cancer cells; assay: Cell migration (chemotaxis), Boyden-Chamber assay, sorted cells; assay type: cell-based, human; conditions: Doxorubicin 0.01 μM + 1e 5 μM vs 10% FBS
Experimental: (§2) TNBC cell lines—MDA‐MB‐231, MDA‐MB‐468, and the sorted CD24^+‐breast cancer cells, and CD24^−/CD44^+‐breast CSC populations from MDA‐MB‐231 [6] were seeded at a density of 1 × 10^6 cells/well to evaluate their migratory potential by Boyden‐Chamber assay. […] At the end of the treatment period, the cells were plated at a density of 5 × 10^3 cells/well in the upper chamber of the Boyden chamber assembly and 10% FBS in the lower chamber was used as a chemoattractant. Separately, the cells in the upper chamber were treated with Doxorubicin (0.01–0.1 μM) alone or with the potential EGFR inhibitors (compounds—1c, 1e, 1g, 1h, 1j, and 1k (5 μM) based on their low IC50 values) or a commercial EGFR inhibitor, PD153035 (10 μM) and incubated for 4 h followed by fixation and staining as described previously.[28], [29]

[7] = system: CD24^−/CD44^+‐breast CSC populations; assay: as above; assay type: cell-based, human; conditions: sorted CD24^−/CD44^+ CSCs; Doxorubicin 0.01 μM + 1e 5 μM vs 10% FBS
Experimental: as §2

## c1cncc(C(c2c[nH]c3ccccc23)c2c[nH]c3ccccc23)c1 [1e]
[1]
  mammosphere forming efficiency: significant decrease
[2]
  mammosphere forming efficiency: significant decrease
[3]
  doxorubicin‐induced nuclear fragmentation (apoptosis): markedly increased
[4]; 50 mg/kg + low dose doxorubicin 2.5 mg/kg, CSC xenograft
  tumorigenicity (H&E histology): significant decrease
[4]; 50 mg/kg + low dose doxorubicin 2.5 mg/kg, CSC xenograft, day 14
  histopathological finding in tumor tissue: no tumor mass
[4]; intratumoral, 50 mg/kg + doxorubicin low dose 2.5 mg/kg vs low dose doxorubicin alone, CD24^−/CD44^+ CSC xenograft
  tumor size: significantly decreased
[5]
  expression of pro‐apoptotic genes Bax and Cytochrome‐C: marked increase
[6]
  migratory potential: significantly reduced
[7]
  migratory potential: significantly reduced
